Experimental data from US9788539B2, “Platelet protection solution having beta-galactosidase and sialidase inhibitors” (Velico Medical, Inc., priority 2011, dated 2017).
Entries after “also recorded” stand apart in the source; their conditions may differ.

What was measured:
mouse platelets [1] = assay: Sialidase (neuraminidase)-induced loss of platelet surface receptors, flow cytometry and immunoblot; type: cell-based
mouse platelets [2] = assay: β-galactose exposure by FITC RCA-1 lectin binding with fetuin as competitive sialidase substrate; type: cell-based; settings: fetuin 1 mg/mL
mouse platelets [3] = assay: Surface receptor loss of mouse platelets stored at room temperature; type: cell-based; settings: mouse platelets stored at room temperature for 6 h, with fetuin (30-60% loss without)
mouse platelets [4] = assay: Survival of mouse platelets stored 20 hrs at RT in pPAS with or without DGJ after transfusion; type: in vivo; settings: 2 mM DGJ in pPAS, 30% plasma 70% pPAS, 20-hr storage at RT, vs pPAS alone
Experimental: Materials and Methods: Blood was obtained from anesthetized 8 weeks old C57/Bl6 mice by retroorbital bleeding. Platelets and platelet poor plasma (PPP) were prepared by differential centrifugation as described. Isolated platelets were labeled with 2.5 μM of CMFDA for 15 min. Following staining, platelets were pelleted and resuspended in 500 μl of plasma, or in a mixture of 30% plasma and 70% pPAS (i.e., PPS9 formulation in Tables 1 and 3 without the 2 mM of DGJ shown in the tables) or pPAS+DGJ (2 mM) (PPS9 formulation in Tables 1 and 3). Platelets were stored for 20 hrs at room temperature and transfused into 8 weeks old syngeneic mice. Non-stored fresh platelets in plasma were used as control. Platelet survivals were determined by intravenous injections CMFDA-labeled mouse platelets, respectively. Blood was collected by retroorbital bleeding at 5 min, 2, 24, 48 and 72 hrs. The percentages of CMFDA-positive platelets were determined by flow cytometry.

[5] = test system: platelet GPIbα and GPV receptor surface expression; assay: Recombinant TACE-mediated GPIbα and GPV shedding from platelets; type: cell-based, mouse
mouse platelets [6] = assay: Sialidase-induced β-galactose exposure on platelets, lectin binding by flow cytometry; type: cell-based
THP-1 cells = assay: Ingestion of β-galactosidase treated platelets by THP-1 cells; type: cell-based; settings: fresh human platelets treated with β-galactosidase
Experimental: FIG. 44 is a bar graph showing that […] cells ingestion of human platelets correlates with decrease in β-galactose exposure. Isolated human platelets were labeled with CM-Orange, added to THP-1 cells and incubated for 30 min at 37° C. Ingestion of fluorescently labeled control fresh room temperature platelets and platelets treated by β-galactosidase was detected using flow cytometry, as an increase in […] associated orange fluorescence.
We treated fresh isolated platelets from healthy volunteers with β-galactosidase, which cleaves terminal β-galactose from platelet surfaces.

fetuin: neuraminidase (NA) substrate, competitive sialidase substrate
loss (shedding) of platelet GPIbα and GPV induced by sialidase/neuraminidase, in presence of inhibitor (mouse platelets [1]): completely prevented this loss | RCA-1 binding to fresh platelets (mouse platelets [2]; fresh platelets at room temperature): no effect | sialic acid hydrolysis (β-galactose exposure, RCA-1 binding) during platelet storage (mouse platelets [2]; mouse platelet rich plasma, refrigeration 48 h): inhibits the hydrolysis of sialic acid from platelet glycans; also recorded: greatly inhibits sialic acid hydrolysis | loss of GPIb and GPV (mouse platelets [3]): 10-20%

OC[C@H]1NC[C@H](O)[C@@H](O)[C@H]1O [DGJ, 1-deoxygalactonojirimycin]
survival of the transfused platelets (mouse platelets [4]): significantly improved the survival of the transfused platelets

CNC(=O)[C@H](Cc1c[nH]c2ccccc12)NC(=O)[C@@H](CC(=O)NO)CC(C)C [GM6001]
receptor shedding by rTACE in presence of inhibitor [5]: inhibited receptor shedding | β-galactose exposure induced by sialidase in presence of inhibitor (mouse platelets [6]): did not prevent β-galactose exposure

β-galactosidase
ingestion of platelets by THP-1 cells compared to control platelets (THP-1 cells): 4 fold

rTACE: recombinant TACE (ADAM17) metalloprotease
GPIbα released from platelets ([5]; platelets treated with rTACE): 47%±6 | GPV released from platelets ([5]; platelets treated with rTACE): 18%±12 | GPIX and αIIbβ3 released from platelets ([5]; platelets treated with rTACE, not shown): negligible amounts
